Laboratory results as given in patent US11970494B2, “6-heteroaryloxy benzimidazoles and azabenzimidazoles as JAK2 inhibitors” (Ajax Therapeutics, Inc., priority 2021, dated 2024).
Converted amounts (≈) assume the structure as drawn.

Key:
JAK3 = biological target: T1, JAK3 (Homo sapiens, UniProt P52333); test: JAK Family Selectivity Assay: JAK3 vs JAK2 binding affinity; settings: Kd JAK3 over Kd JAK2
T1 construct: made in house; host or cells: T7 phage in BL21-derived E. coli or HEK-293 cells
T1 sequence (P52333 1-1124): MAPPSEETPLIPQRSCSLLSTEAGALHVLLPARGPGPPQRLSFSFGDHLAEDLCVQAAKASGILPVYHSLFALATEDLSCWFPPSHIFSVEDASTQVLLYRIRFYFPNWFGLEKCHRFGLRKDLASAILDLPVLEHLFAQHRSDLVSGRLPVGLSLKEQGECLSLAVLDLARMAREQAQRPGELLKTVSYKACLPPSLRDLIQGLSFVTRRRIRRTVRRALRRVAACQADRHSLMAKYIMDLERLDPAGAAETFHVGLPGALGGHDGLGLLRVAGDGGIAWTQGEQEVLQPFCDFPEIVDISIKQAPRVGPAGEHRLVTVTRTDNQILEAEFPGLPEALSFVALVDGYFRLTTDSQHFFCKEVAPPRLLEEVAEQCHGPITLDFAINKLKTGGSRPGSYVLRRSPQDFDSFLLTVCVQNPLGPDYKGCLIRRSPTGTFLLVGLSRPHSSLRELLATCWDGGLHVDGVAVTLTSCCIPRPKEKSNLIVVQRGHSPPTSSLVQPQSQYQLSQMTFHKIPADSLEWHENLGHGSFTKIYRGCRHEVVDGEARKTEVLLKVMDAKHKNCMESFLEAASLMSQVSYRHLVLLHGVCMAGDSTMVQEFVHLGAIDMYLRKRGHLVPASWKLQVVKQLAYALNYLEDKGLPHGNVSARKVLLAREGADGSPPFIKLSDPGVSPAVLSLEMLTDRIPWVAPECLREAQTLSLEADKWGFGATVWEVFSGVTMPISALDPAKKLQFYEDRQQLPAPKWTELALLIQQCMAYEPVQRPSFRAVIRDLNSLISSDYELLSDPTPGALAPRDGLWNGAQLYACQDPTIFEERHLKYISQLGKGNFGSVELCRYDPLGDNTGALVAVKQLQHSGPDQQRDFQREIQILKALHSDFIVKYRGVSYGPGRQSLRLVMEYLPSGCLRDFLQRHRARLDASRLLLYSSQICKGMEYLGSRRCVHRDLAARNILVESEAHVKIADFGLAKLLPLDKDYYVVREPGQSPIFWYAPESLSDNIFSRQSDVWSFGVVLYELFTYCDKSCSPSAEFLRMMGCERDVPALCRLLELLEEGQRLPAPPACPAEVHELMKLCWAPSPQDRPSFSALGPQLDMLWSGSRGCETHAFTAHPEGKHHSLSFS
Protocol: Provided compounds are evaluated for selectivity by comparing their JAK2 binding affinity (Kd) in the above JAK2 Binding Assay with their binding affinity (Kd) for one or more other kinases. Binding affinity for other kinases is determined as follows: Kinase-tagged T7 phage strains are prepared in an E. coli host derived from the BL21 strain. E. coli are grown to log-phase and infected with T7 phage and incubated with shaking at 32° C. until lysis. The lysates are centrifuged and filtered to remove cell debris. The remaining kinases are produced in HEK-293 cells and subsequently tagged with DNA for qPCR detection. Streptavidin-coated magnetic beads are treated with biotinylated small molecule ligands for 30 minutes at room temperature to generate affinity resins for kinase assays. The liganded beads are blocked with excess biotin and washed with blocking buffer (SeaBlock (Pierce), 1% BSA, 0.05% Tween 20, 1 mM DTT) to remove unbound ligand and to reduce non-specific binding. Binding reactions are assembled by combining kinases, liganded affinity beads, and test compounds in 1× binding buffer (20% SeaBlock, 0.17×PBS, 0.05% Tween 20, 6 mM DTT). Test compounds are prepared as 111× stocks in 100% DMSO. Kds are determined using an 11-point 3-fold compound dilution series with three DMSO control points. All compounds for Kd measurements are distributed by acoustic transfer (non-contact dispensing) in 100% DMSO. The compounds are then diluted directly into the assays such that the final concentration of DMSO is 0.9%. All reactions are performed in polypropylene 384-well plate. Each has a final volume of 0.02 ml. The assay plates are incubated at room temperature with shaking for 1 hour and the affinity beads are washed with wash buffer (1×PBS, 0.05% Tween 20). The beads are then re-suspended in elution buffer (1× PBS, 0.05% Tween 20, 0.5 μM non-biotinylated affinity ligand) and incubated at room temperature with shaking for 30 minutes. The kinase concentration in the eluates is measured by qPCR. […] In some embodiments, provided compounds may be JAK2-selective over one or more of the following kinases: JAK1, JAK3, and Tyk2.

Kinetic Solubility Assay = type: physicochemical; settings: aqueous buffer, kinetic from dmso stock, kinetic solubility in PBS (pH 4.0 and pH 7.4 in method; pH of table values not stated), RT
Protocol: Stock solutions of test compounds are prepared in DMSO at the concentration of 10 mM, and a stock solution of control compound is prepared in DMSO at the concentration of 30 mM. Diclofenac is used as positive control in the assay. 30 μL stock solution of each compound is placed into their a 96-well rack, followed by adding 970 μL of PBS at pH 4.0 and pH 7.4 into each vial of the cap-less solubility sample plate. This study is performed in duplicate. One stir stick is added to each vial and then vials are sealed using a molded PTDE/SIL 96-Well Plate Cover. The solubility sample plate is transferred to the Thermomixer comfort plate shaker and incubated at RT for 2 hours with shaking at 1100 rpm. After 2 hours incubation, stir sticks are removed using a big magnet and all samples from the solubility sample plate are transferred into the filter plate. All the samples are filtered by vacuum manifold. The filtered samples are diluted with methanol. Samples are analyzed by LC-MS/MS and quantified against a standard of known concentration in DMSO using LC coupled with Mass spectral peak identification and quantitation. The solubility values of the test compounds are calculated as follows, wherein INJ VOL is injection volume, DF is dilution factor, and STD is standard: […]

For `COC(=O)Nc1cc(Oc2cnc3nc(Nc4cc(C(F)(F)F)cn(C)c4=O)n(C)c3c2C#N)ccn1` [Example I-3, Methyl (4-((7-cyano-1-methyl-2-((1-methyl-2-oxo-5-(trifluoromethyl)-1,2-dihydropyridin-3-yl)amino)-1H-imidazo[4,5-b]pyridin-6-yl)oxy)pyridin-2-yl)carbamate], which “JAK3/JAK2 Kd/Kd ratio” value (JAK3) is on record?
Its value is “A (Kd/Kd ratio ≥1000)”.

What about the solubility at 2 h (Kinetic Solubility Assay) of the same compound?
The solubility at 2 h was 0.1 to 9 µM (≈ 0.0514 to 4.63 µg/mL).

For `CN(C)C(=O)Nc1cc(Oc2cnc3nc(Nc4cc(C(F)(F)F)cn(C)c4=O)n(C)c3c2C#N)ccn1` [Example I-4, 3-(4-((7-cyano-1-methyl-2-((1-methyl-2-oxo-5-(trifluoromethyl)-1,2-dihydropyridin-3-yl)amino)-1H-imidazo[4,5-b]pyridin-6-yl)oxy)pyridin-2-yl)-1,1-dimethylurea], which “JAK3/JAK2 Kd/Kd ratio” value (JAK3) is on record?
The value was “A (Kd/Kd ratio ≥1000)”.

And the solubility at 2 h (Kinetic Solubility Assay)?
The solubility at 2 h was 9 to 100 µM (≈ 4.75 to 52.7 µg/mL).

Which “JAK3/JAK2 Kd/Kd ratio” value (JAK3) does the source give for `Cn1cc(C(F)(F)F)cc(Nc2nc3ncc(Oc4ccnc(NC(=O)N5CCC5)c4)c(C#N)c3n2C)c1=O` [Example I-7, N-(4-((7-cyano-1-methyl-2-((1-methyl-2-oxo-5-(trifluoromethyl)-1,2-dihydropyridin-3-yl)amino)-1H-imidazo[4,5-b]pyridin-6-yl)oxy)pyridin-2-yl)azetidine-1-carboxamide] here?
Its value is “A (Kd/Kd ratio ≥1000)”.

And the solubility at 2 h (Kinetic Solubility Assay)?
The solubility at 2 h was 0.1 to 9 µM (≈ 0.0539 to 4.86 µg/mL).

Which results are given for `CO[C@H]1CCN(C(=O)Nc2cc(Oc3cnc4nc(Nc5cc(C(F)(F)F)cn(C)c5=O)n(C)c4c3C#N)ccn2)C1` [Example I-14, (S)-N-(4-((7-cyano-1-methyl-2-((1-methyl-2-oxo-5-(trifluoromethyl)-1,2-dihydropyridin-3-yl)amino)-1H-imidazo[4,5-b]pyridin-6-yl)oxy)pyridin-2-yl)-3-methoxypyrrolidine-1-carboxamide]?
JAK3/JAK2 Kd/Kd ratio (JAK3): A (Kd/Kd ratio ≥1000); solubility at 2 h (Kinetic Solubility Assay): 0.1 to 9 µM (≈ 0.0584 to 5.25 µg/mL)

For `Cn1cc(C(F)(F)F)cc(Nc2nc3ncc(Oc4ccnc(NC(=O)OCCN5CCOCC5)c4)c(C#N)c3n2C)c1=O` [Example I-15, 2-Morpholinoethyl(4-((7-cyano-1-methyl-2-((1-methyl-2-oxo-5-(trifluoromethyl)-1,2-dihydropyridin-3-yl)amino)-1H-imidazo[4,5-b]pyridin-6-yl)oxy)pyridin-2-yl)carbamate], which “JAK3/JAK2 Kd/Kd ratio” value (JAK3) is on record?
The value was “A (Kd/Kd ratio ≥1000)”.

What about the solubility at 2 h (Kinetic Solubility Assay) of the same compound?
Its solubility at 2 h is 9 to 100 µM (≈ 5.52 to 61.4 µg/mL).

Which “JAK3/JAK2 Kd/Kd ratio” value (JAK3) does the source give for `Cn1cc(C(F)(F)F)cc(Nc2nc3ncc(Oc4ccnc(NC(=O)O[C@@H]5CCOC5)c4)c(C#N)c3n2C)c1=O` [Example I-18, (R)-Tetrahydrofuran-3-yl(4-((7-cyano-1-methyl-2-((1-methyl-2-oxo-5-(trifluoromethyl)-1,2-dihydropyridin-3-yl)amino)-1H-imidazo[4,5-b]pyridin-6-yl)oxy)pyridin-2-yl)carbamate] here?
The value was “A (Kd/Kd ratio ≥1000)”.

What about the solubility at 2 h (Kinetic Solubility Assay) of the same compound?
Its solubility at 2 h is 0.1 to 9 µM (≈ 0.057 to 5.13 µg/mL).

With `COC1CN(C(=O)Nc2cc(Oc3cnc4nc(Nc5cc6n(n5)CCCC6(F)F)n(C)c4c3C#N)ccn2)C1` [Example I-26, N-(4-((7-cyano-2-((4,4-difluoro-4,5,6,7-tetrahydropyrazolo[1,5-a]pyridin-2-yl)amino)-1-methyl-1H-imidazo[4,5-b]pyridin-6-yl)oxy)pyridin-2-yl)-3-methoxyazetidine-1-carboxamide] as the compound, how does the solubility at 2 h (Kinetic Solubility Assay) read?
Its solubility at 2 h is 9 to 100 µM (≈ 4.95 to 55.1 µg/mL).

With `Cn1c(Nc2cc3n(n2)CCOC3(C)C)nc2ncc(Oc3ccnc(NC(=O)O[C@@H]4CCOC4)c3)c(C#N)c21` [Example I-48, (R)-Tetrahydrofuran-3-yl(4-((7-cyano-2-((4,4-dimethyl-6,7-dihydro-4H-pyrazolo[5,1-c][1,4]oxazin-2-yl)amino)-1-methyl-1H-imidazo[4,5-b]pyridin-6-yl)oxy)pyridin-2-yl)carbamate] as the compound, how does the solubility at 2 h (Kinetic Solubility Assay) read?
The solubility at 2 h was 0.1 to 9 µM (≈ 0.0546 to 4.91 µg/mL).

With `CN(C)C(=O)Nc1cc(Oc2cnc3nc(Nc4cc5n(n4)CCC54CCC4)n(C)c3c2C#N)ccn1` [Example I-56, 3-(4-((7-cyano-2-((5′,6′-dihydrospiro[cyclobutane-1,4′-pyrrolo[1,2-b]pyrazol]-2′-yl)amino)-1-methyl-1H-imidazo[4,5-b]pyridin-6-yl)oxy)pyridin-2-yl)-1,1-dimethylurea] as the compound, how does the solubility at 2 h (Kinetic Solubility Assay) read?
Its solubility at 2 h is 9 to 100 µM (≈ 4.49 to 49.9 µg/mL).

With `COC(=O)Nc1cc(Oc2cnc3nc(Nc4cc5n(n4)CCC54CCC4)n(C)c3c2C#N)ccn1` [Example I-57, methyl(4-((7-cyano-2-((5′,6′-dihydrospiro[cyclobutane-1,4′-pyrrolo[1,2-b]pyrazol]-2′-yl)amino)-1-methyl-1H-imidazo[4,5-b]pyridin-6-yl)oxy)pyridin-2-yl)carbamate] as the compound, how does the solubility at 2 h (Kinetic Solubility Assay) read?
The solubility at 2 h was 0.1 to 9 µM (≈ 0.0486 to 4.37 µg/mL).

Which “JAK3/JAK2 Kd/Kd ratio” value (JAK3) does the source give for `CO[C@@H]1CCN(C(=O)Nc2cc(Oc3cnc4nc(Nc5cc6n(n5)CCC65CCC5)n(C)c4c3C#N)ccn2)C1` [Example I-60, (R)-N-(4-((7-cyano-2-((5′,6′-dihydrospiro[cyclobutane-1,4′-pyrrolo[1,2-b]pyrazol]-2′-yl)amino)-1-methyl-1H-imidazo[4,5-b]pyridin-6-yl)oxy)pyridin-2-yl)-3-methoxypyrrolidine-1-carboxamide] here?
Its value is “B (Kd/Kd ratio <1000 and ≥300)”.

What about the solubility at 2 h (Kinetic Solubility Assay) of the same compound?
The solubility at 2 h was 9 to 100 µM (≈ 4.99 to 55.5 µg/mL).

With `COC1CN(C(=O)Nc2cc(Oc3cnc4nc(Nc5cc6n(n5)CCC65CCC5)n(C)c4c3C#N)ccn2)C1` [Example I-61, N-(4-((7-cyano-2-((5′,6′-dihydrospiro[cyclobutane-1,4′-pyrrolo[1,2-b]pyrazol]-2′-yl)amino)-1-methyl-1H-imidazo[4,5-b]pyridin-6-yl)oxy)pyridin-2-yl)-3-methoxyazetidine carboxamide] as the compound, how does the “JAK3/JAK2 Kd/Kd ratio” value (JAK3) read?
The value was “A (Kd/Kd ratio ≥1000)”.

What about the solubility at 2 h (Kinetic Solubility Assay) of the same compound?
The solubility at 2 h was 0.1 to 9 µM (≈ 0.0541 to 4.87 µg/mL).

Which solubility at 2 h (Kinetic Solubility Assay) does the source give for `CC(=O)Nc1cc(Oc2cnc3nc(Nc4cc5n(n4)CCCC54CC4)n(C)c3c2C#N)ccn1` [Example I-114, N-(4-((7-cyano-2-((6′,7′-dihydro-5′H-spiro[cyclopropane-1,4′-pyrazolo[1,5-a]pyridin]-2′-yl)amino)-1-methyl-1H-imidazo[4,5-b]pyridin-6-yl)oxy)pyridin-2-yl)acetamide] here?
The solubility at 2 h was 9 to 100 µM (≈ 4.23 to 47 µg/mL).

With `CC(=O)Nc1cc(Oc2cnc3nc(Nc4cc5n(n4)CCOCC5(C)C)n(C)c3c2C#N)ccn1` [Example I-118, N-(4-((7-cyano-2-((4,4-dimethyl-4,5,7,8-tetrahydropyrazolo[1,5-d][1,4]oxazepin-2-yl)amino)-1-methyl-1H-imidazo[4,5-b]pyridin-6-yl)oxy)pyridin-2-yl)acetamide] as the compound, how does the solubility at 2 h (Kinetic Solubility Assay) read?
Its solubility at 2 h is 9 to 100 µM (≈ 4.39 to 48.8 µg/mL).
